Experimental data: patent publication US11129805B2, “Dual ACE C-domain/NEP inhibitors” (ANGIODESIGN (UK) LIMITED, priority 2016, dated 2021)
Read-outs that look alike come from different tables or passages of the source.

Key:
[1] = test system: hypertensive animal (the high-renin mouse model); conditions: in vivo; cited from earlier work
ACE C-domain = ACE C-domain (Homo sapiens, UniProt P12821); conditions: cited from earlier work
[2] = cited from earlier work; for angioedema frequency: 5,770 patients with heart failure
[3] = test system: 10% human plasma supplemented with rhNEP (ACE and NEP activity); experiment: Metabolism of a bradykinin 1-9 spike in human plasma (LC-MS/MS); assay type: biochemical; conditions: for initial bradykinin 1-9 spike remaining/recovered following the incubation period: 50 ng/ml BK 1-9 spike, 10% human plasma + rhNEP 200 pg/ml, 37° C.
Procedure: All samples were spiked with bradykinin 1-9 (BK1-9) at a concentration of 50 ng/ml followed by an incubation period at 37° C. Recombinant human neutral endopeptidase (rhNEP) was added to all samples at a concentration of 200 pg/ml.
The concentrations of BK 1-9 are relative to the control that was plasma spiked with BK 1-9 following the incubation period (100% spike control).
Effects on Bradykinin Peptides. The metabolism of a spike of bradykinin 1-9 (50 ng/ml) in 10% human plasma supplemented with 200 pg/ml rhNEP (R&D) in vitro, followed by LC-MS/MS-based quantification of the bradykinin metabolites bradykinin 1-9, 1-8, 1-7, 1-5, and 2-9 was examined. Briefly, samples where stabilized and spiked with 200 pg/ml of stable-isotope-labelled internal standards for bradykinin 1-9, 1-8, 1-7, 1-5, and 2-9. Following C18-based solid-phase-extraction, samples were subjected to LC-MS/MS analysis using a reversed-phase analytical column (Acquity UPLC® C18, Waters) operating in line with a XEVO TQ-S triple quadrupole mass spectrometer (Waters) in MRM mode.

[4] = patients with hypertension, cited from earlier work
[5] = test system: human plasma supplemented with recombinant human NEP (ACE and NEP activity); experiment: RAS equilibrium analysis of angiotensin peptides in human plasma ex vivo (LC-MS/MS); conditions: human plasma + rhNEP 200 pg/ml
Procedure: Recombinant human neutral endopeptidase (rhNEP) was added to all samples at a concentration of 200 pg/ml.
Equilibrium angiotensin peptide levels were measured in plasma samples after incubating Li-Heparin samples supplemented with recombinant human NEP (rhNEP) (R&D, 200 pg/ml) at controlled pH (7.4) for a period of 30 min at 37° C. in the presence and absence of indicated compounds and enzymes. Following equilibration, samples were stabilized and spiked with stable-isotope-labelled internal standards for each angiotensin metabolite, Ang I (Ang 1-10), Ang II (Ang 1-8), Ang 1-7, Ang 1-5, Ang 2-8, Ang 3-8, Ang 2-10, Ang 2-7, Ang 1-9, and Ang 3-7, at a concentration of 200 pg/ml. Following C18-based solid-phase-extraction, samples were subjected to LC-MS/MS analysis using a reversed-phase analytical column (Acquity UPLC® C18, Waters) operating in line with a XEVO TQ-S triple quadrupole mass spectrometer (Waters) in MRM mode.

[6] = cited from earlier work
[7] = 573 patients with heart failure; cited from earlier work
aminopeptidase P = conditions: cited from earlier work

ACE C-domain, sequence (P12821 643-1222 limits assumed): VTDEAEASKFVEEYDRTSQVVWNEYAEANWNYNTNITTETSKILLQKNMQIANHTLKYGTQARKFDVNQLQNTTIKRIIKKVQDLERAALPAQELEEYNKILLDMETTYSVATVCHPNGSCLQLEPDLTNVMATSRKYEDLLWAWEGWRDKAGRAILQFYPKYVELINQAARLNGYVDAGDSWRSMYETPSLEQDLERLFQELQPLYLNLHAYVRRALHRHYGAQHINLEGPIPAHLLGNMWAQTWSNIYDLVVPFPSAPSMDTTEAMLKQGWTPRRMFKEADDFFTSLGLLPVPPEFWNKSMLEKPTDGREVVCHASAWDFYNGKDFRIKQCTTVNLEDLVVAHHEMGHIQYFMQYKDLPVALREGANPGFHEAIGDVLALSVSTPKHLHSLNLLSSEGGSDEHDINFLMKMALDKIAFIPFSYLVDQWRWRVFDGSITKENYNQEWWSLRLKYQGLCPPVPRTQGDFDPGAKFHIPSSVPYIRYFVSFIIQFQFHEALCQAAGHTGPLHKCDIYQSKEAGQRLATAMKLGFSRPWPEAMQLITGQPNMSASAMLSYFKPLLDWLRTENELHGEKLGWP

NCCCC[C@H](N[C@@H](CCc1ccccc1)C(=O)O)C(=O)N[C@@H](Cc1c[nH]c2ccccc12)C(=O)O [Lis-Trp]
Ang II formation [1]: suppression of Ang Il formation | blood pressure [1]: reduction in blood pressure equivalent to that achieved with the conventional ACE inhibitor lisinopril | plasma BK levels [1]: leaving BK levels unchanged

O=C(N[C@@H](Cc1ccccc1)P(=O)(O)C1CCCC1C(=O)N[C@@H](Cc1c[nH]c2ccccc12)C(=O)O)OCc1ccccc1 (some centres unmarked) [RXP A380]
C-domain selectivity (ACE C-domain): ~3,000 fold

CCOC(=O)[C@H](CCc1ccccc1)N[C@@H](C)C(=O)N1CCC[C@H]1C(=O)O [enalapril]
angioedema frequency [2]: 0.5%

NCCCC[C@H](N[C@@H](CCc1ccccc1)C(=O)O)C(=O)N1CCC[C@H]1C(=O)O [lisinopril]
plasma BK levels [1]: substantial increases in plasma BK levels | initial bradykinin 1-9 spike remaining/recovered following the incubation period [3]: 57-70%

O=C(N[C@H]1CCS[C@H]2CCC[C@@H](C(=O)O)N2C1=O)[C@@H](S)Cc1ccccc1 [omapatrilat]
angioedema frequency [2]: 0.8% | primary endpoint (all-cause mortality or hospitalization for heart failure) ([2]; comparison with enalapril): failed to show superiority | reduction in arterial pressure ([4]; versus lisinopril): greater reductions in arterial pressure | excretion of ANP [4]: increased the excretion of ANP | initial bradykinin 1-9 spike remaining/recovered following the incubation period [3]: 74-85% | metabolism of bradykinin ([3]; versus solvent control plasma): decreased metabolism of bradykinin | inhibition of equilibrium Ang 1-8 levels (Ang II) ([5]; pH 7.4, 30 min at 37° C.): 93.1% | levels of Ang 1-7 ([5]; sentence follows the rhACE2 discussion): undetectable | incidence of angioedema ([6]; 25,302 hypertensive subjects): 2.17% | incidence of angioedema ([6]; African American patients): 5.53% | blood pressure reduction ([6]; comparison with enalapril): superior to enalapril in reducing blood pressure | benefit versus lisinopril [7]: trend toward greater benefit | inhibition of aminopeptidase P (aminopeptidase P): inhibits
